pIC50: −log10 of the molar value. Calls of active or inactive are those of the source. The rule behind the calls is not given here.
Legend:
[1] = system: NIH3T3; assay: Growth inhibition of mouse NIH/3T3 cells expressing erB2 gene; assay type: functional, cell-based
[2] = system: MDA-MB-468; assay: Induction of DNA damage in human MDA-MB-468 cells assessed as tail movements by comet assay; assay type: functional, cell-based
[3] = target: Epidermal growth factor receptor (Homo sapiens, UniProt P00533); assay: Inhibition of EGFR-mediated poly(L-glutamic acid L-tyrosine) phosphorylation
[4] = Stability assessed as degradation to FD105 at 37 degC by fluorescence; assay type: physicochemical

Chain of Epidermal growth factor receptor (P00533 whole entry): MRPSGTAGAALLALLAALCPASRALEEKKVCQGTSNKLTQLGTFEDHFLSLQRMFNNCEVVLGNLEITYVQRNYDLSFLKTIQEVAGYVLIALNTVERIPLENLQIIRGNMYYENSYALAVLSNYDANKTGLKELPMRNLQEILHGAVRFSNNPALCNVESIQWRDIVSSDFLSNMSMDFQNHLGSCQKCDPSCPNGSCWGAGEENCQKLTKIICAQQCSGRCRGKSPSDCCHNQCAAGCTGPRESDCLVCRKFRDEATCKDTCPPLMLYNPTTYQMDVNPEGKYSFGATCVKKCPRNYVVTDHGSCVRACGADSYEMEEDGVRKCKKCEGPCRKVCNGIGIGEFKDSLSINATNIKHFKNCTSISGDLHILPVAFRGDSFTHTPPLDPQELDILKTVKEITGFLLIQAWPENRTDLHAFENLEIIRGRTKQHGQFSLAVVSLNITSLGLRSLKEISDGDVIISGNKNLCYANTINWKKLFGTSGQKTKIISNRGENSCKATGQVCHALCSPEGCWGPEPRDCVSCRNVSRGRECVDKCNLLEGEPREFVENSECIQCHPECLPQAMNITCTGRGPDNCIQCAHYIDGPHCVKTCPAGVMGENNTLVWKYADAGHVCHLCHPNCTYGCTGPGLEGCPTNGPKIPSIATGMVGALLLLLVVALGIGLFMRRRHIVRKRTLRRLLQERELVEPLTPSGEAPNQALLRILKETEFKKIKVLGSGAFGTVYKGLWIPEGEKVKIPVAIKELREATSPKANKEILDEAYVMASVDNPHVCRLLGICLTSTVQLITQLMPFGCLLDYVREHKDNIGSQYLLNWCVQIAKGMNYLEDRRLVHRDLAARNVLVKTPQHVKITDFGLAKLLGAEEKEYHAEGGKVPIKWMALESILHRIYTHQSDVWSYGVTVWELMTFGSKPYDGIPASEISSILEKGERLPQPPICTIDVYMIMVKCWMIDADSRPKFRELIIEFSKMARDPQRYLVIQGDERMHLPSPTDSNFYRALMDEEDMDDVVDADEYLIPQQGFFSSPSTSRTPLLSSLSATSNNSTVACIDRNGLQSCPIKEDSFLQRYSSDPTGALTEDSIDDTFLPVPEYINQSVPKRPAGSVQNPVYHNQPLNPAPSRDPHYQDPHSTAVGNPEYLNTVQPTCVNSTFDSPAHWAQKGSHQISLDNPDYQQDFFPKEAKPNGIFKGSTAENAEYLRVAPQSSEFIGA

Compound | pIC50 [1] | Activity [2] | pIC50 [3] | Stability [4]
CN(/N=N/c1ccc2ncnc(Nc3cccc(Cl)c3)c2c1)C(=O)Oc1ccc([N+](=O)[O-])cc1 | 5.42 | Dose-dependent effect | 6.11 | Stable
CC(=O)OCN(C)/N=N/c1ccc2ncnc(Nc3cccc(Cl)c3)c2c1 |  |  | 6.62 | Unstable
C=COC(=O)N(C)/N=N/c1ccc2ncnc(Nc3cccc(Cl)c3)c2c1 | 5.63 | inactive | 6.14 | Stable
C=COC(=O)N(CCN(C)C)/N=N/c1ccc2ncnc(Nc3cccc(Cl)c3)c2c1 | 5.64 | Dose-dependent effect | 6.74 | 
CC(=O)OCOC(=O)N(C)/N=N/c1ccc2ncnc(Nc3cccc(Cl)c3)c2c1 | 5.82 | Dose-dependent effect | 6.20 | Stable
CN(/N=N/c1ccc2ncnc(Nc3cccc(Cl)c3)c2c1)C(=O)OCCl | 5.31 | Dose-dependent effect | 6.41 | 

Source: ChEMBL document CHEMBL1155367, “Design and synthesis of new stabilized combi-triazenes for targeting solid tumors expressing the epidermal growth factor receptor (EGFR) or its closest homologue HER2” (Bioorg Med Chem Lett, 2009)
